Reference: PubChem BioAssay (NCI)
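In this assay, cells in 96-well plates receive the compound at five concentrations for 48 hours. Endpoints are linearly interpolated between the surrounding concentrations. TGI denotes the concentration required for complete inhibition of growth.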

Experiments:
Test in all cases: NCI-60 cell line screen, 48 h
786-0 renal = tested on: 786-0 renal
A498 renal = tested on: A498 renal
A549 NSCLC = tested on: A549 NSCLC
ACHN renal = tested on: ACHN renal
BT-549 breast = tested on: BT-549 breast
CAKI-1 renal = tested on: CAKI-1 renal
CCRF-CEM leukemia = tested on: CCRF-CEM leukemia
COLO 205 colon = tested on: COLO 205 colon
DU-145 prostate = tested on: DU-145 prostate
EKVX NSCLC = tested on: EKVX NSCLC
HCC-2998 colon = tested on: HCC-2998 colon
HCT-116 colon = tested on: HCT-116 colon
HCT-15 colon = tested on: HCT-15 colon
HL-60(TB) leukemia = tested on: HL-60(TB) leukemia
HOP-62 NSCLC = tested on: HOP-62 NSCLC
HOP-92 NSCLC = tested on: HOP-92 NSCLC
HS 578T breast = tested on: HS 578T breast
HT29 colon = tested on: HT29 colon
IGROV1 ovarian = tested on: IGROV1 ovarian
K-562 leukemia = tested on: K-562 leukemia
KM12 colon = tested on: KM12 colon
LOX IMVI melanoma = tested on: LOX IMVI melanoma
M14 melanoma = tested on: M14 melanoma
MCF7 breast = tested on: MCF7 breast
MDA-MB-231 breast = tested on: MDA-MB-231 breast
MDA-MB-435 = tested on: MDA-MB-435
MDA-N = tested on: MDA-N
MOLT-4 leukemia = tested on: MOLT-4 leukemia
NCI-H226 lung = tested on: NCI-H226 lung
NCI-H23 lung = tested on: NCI-H23 lung
NCI-H460 lung = tested on: NCI-H460 lung
NCI-H522 lung = tested on: NCI-H522 lung
NCI/ADR-RES ovarian = tested on: NCI/ADR-RES ovarian
OVCAR-3 ovarian = tested on: OVCAR-3 ovarian
OVCAR-4 ovarian = tested on: OVCAR-4 ovarian
OVCAR-5 ovarian = tested on: OVCAR-5 ovarian
OVCAR-8 ovarian = tested on: OVCAR-8 ovarian
PC-3 prostate = tested on: PC-3 prostate
RPMI-8226 leukemia = tested on: RPMI-8226 leukemia
RXF 393 renal = tested on: RXF 393 renal
SF-295 CNS = tested on: SF-295 CNS
SK-MEL-2 melanoma = tested on: SK-MEL-2 melanoma
SK-MEL-28 melanoma = tested on: SK-MEL-28 melanoma
SK-MEL-5 melanoma = tested on: SK-MEL-5 melanoma
SK-OV-3 ovarian = tested on: SK-OV-3 ovarian
SNB-19 CNS = tested on: SNB-19 CNS
SNB-75 CNS = tested on: SNB-75 CNS
SW-620 colon = tested on: SW-620 colon
TK-10 renal = tested on: TK-10 renal
U251 CNS = tested on: U251 CNS
UACC-257 melanoma = tested on: UACC-257 melanoma
UACC-62 melanoma = tested on: UACC-62 melanoma
UO-31 renal = tested on: UO-31 renal

Measured: TGI

Cc1ccc2nc(-n3c(/C=C/c4ccccc4O)nc4ccccc4c3=O)sc2c1
> 100 µM: all assays above
